Reference: PMC2918672 (Journal of molecular biology, 2010)
Square brackets hold non-standard residues; d marks the D form. Ends that are not written are not given here. Sta = CC(C)C[C@H](N)[C@@H](O)CC(=O)O

Test system: L40I mutant HTLV-1 PR
Assay: Inhibition of L40I mutant HTLV-1 PR, fluorescent substrate cleavage
Assay type: biochemical, Human T-cell leukemia virus type 1 (HTLV-1)
Details: test compound 50 nM; L40I mutant HTLV-1 PR 1 μg in 50 μL reaction mixture (as a dimer); substrate H-Lys([7-methoxycoumarin-4-yl]acetyl)-APQVL-(p-nitrophenylalanine)-VMHPL-OH; inverse percentage of remaining activity; single determination

## Ac-APQV[Sta]VMHP [Statine Inhibitor]
  Percent inhibition (%) at 50 nM: 19%
